# US5527815A, “Carboxymethylidenecycloheptimidazole derivatives, method of manufacturing the same and therapeutic agents containing these compounds” (Kotobuki Seiyaku Co., Ltd., priority 1993, dated 1996)
# Molecular target: T1, Angiotensin II receptor (Oryctolagus cuniculus, UniProt P34976)
# T1 construct: Rabbit thoracic aorta is isolated, contracted by angiotensin II; from tissue; host or cells: rabbit thoracic aorta
# T1 sequence (P34976 1-359): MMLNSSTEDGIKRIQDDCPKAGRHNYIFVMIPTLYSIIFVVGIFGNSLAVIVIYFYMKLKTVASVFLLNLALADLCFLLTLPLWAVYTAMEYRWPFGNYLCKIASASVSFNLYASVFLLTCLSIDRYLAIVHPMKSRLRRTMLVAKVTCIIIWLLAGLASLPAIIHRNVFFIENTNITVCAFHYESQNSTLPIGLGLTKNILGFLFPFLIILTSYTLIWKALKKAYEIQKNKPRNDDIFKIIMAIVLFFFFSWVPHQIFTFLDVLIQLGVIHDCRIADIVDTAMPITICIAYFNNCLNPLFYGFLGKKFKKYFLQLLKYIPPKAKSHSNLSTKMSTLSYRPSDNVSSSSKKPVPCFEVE
# Assay: AII receptor antagonistic activity: inhibition of angiotensin II induced contraction of isolated rabbit thoracic aorta
# Type: cell-based
# Conditions: isolated rabbit thoracic aorta contracted by angiotensin II; Van Rossum method; values shown in parenthesis
# Protocol: [AII receptor antagonistic activity]
# Angiotensin II receptor activity experiments are carried out according to P. C. Wong et al. (Hypertension 15, 823 (1990)).
# Rabbit thoracic aorta is isolated, contracted by angiotensin II. The inhibition of contraction by the compound of formula (1) is expressed as pA2 from dose-response curve (Schild, Brit. J. Pharmacol. 14, 48 (1959)) or expressed as pD2 ' according to the method of J. M. Van Rossum (Arch. Intern. Pharmacodyn., 143, 229 (1963)).
row,SMILES,pD2'
1,"Cc1nc2c(n1Cc1ccc(-c3ccccc3-c3nnn[nH]3)cc1)/C(=C/C(=O)O)CCCC2 [Compound 15, 2-Methyl-8-carboxymethylidene-1-[(2'-(1H-tetrazole-5-yl)biphenyl-4-yl)methyl]-4,5,6,7-tetrahydro-cycloheptimidazole]",9.91
2,"CCc1nc2c(n1Cc1ccc(-c3ccccc3-c3nnn[nH]3)cc1)/C(=C/C(=O)OC(C)OC(=O)OC(C)C)CCCC2 (stereo not shown) [Compound 30, 2-Ethyl-8-(1-isopropoxycarbonyloxy)ethoxycarbonylmethylidene-1-[(2'-(1H-tetrazole-5-yl)biphenyl-4-yl)methyl]-4,5,6,7-tetrahydro-cycloheptimidazole]",8.11
3,"CCCc1nc2c(n1Cc1ccc(-c3ccccc3-c3nnn[nH]3)cc1)/C(=C/C(=O)OC(C)OC(=O)OCC)CCCC2 (stereo not shown) [Compound 27, 2-Propyl-8-(1-ethoxycarbonyloxy)ethoxycarbonylmethylidene-1-[(2'-(1H-tetrazole-5-yl)biphenyl-4-yl)methyl]-4,5,6,7-tetrahydro-cycloheptimidazole]",8.45
4,"CCCCc1nc2c(n1Cc1ccc(-c3ccccc3-c3nnn[nH]3)cc1)/C(=C/C(=O)O)CCCC2 [Compound 18, 2-Butyl-8-carboxymethylidene-1-[(2'-(1H-tetrazole-5-yl)biphenyl-4-yl)methyl]-4,5,6,7-tetrahydro-cycloheptimidazole]",9.03
5,"CCc1nc2c(n1Cc1ccc(-n3cccc3-c3nnn[nH]3)cc1)/C(=C/C(=O)O)CCCC2 [Compound 23, 2-Ethyl-8-carboxymethylidene-1-[4-(1H-pyrrole-2-(1H-tetrazole-5-yl)phenyl)methyl]-4,5,6,7-tetrahydro-cycloheptimidazole]",9.60
6,"CCOC(=O)OC(C)OC(=O)/C=C1\CCCCc2nc(CC)n(Cc3ccc(-c4ccccc4-c4nnn[nH]4)cc3)c21 (stereo not shown) [Compound 36, 2-Ethyl-8-(1-ethoxycarbonyloxy)ethoxycarbonylmethylidene-1-[(2'-(1H -tetrazole-5-yl)biphenyl-4yl)methyl]-4,5,6,7-tetrahydro-cycloheptimidazole]",8.59
7,"CCCc1nc2c(n1Cc1ccc(-c3ccccc3-c3nnn[nH]3)cc1)/C(=C/C(=O)O)CCCC2 [Compound 17, 2-Propyl-8-carboxymethylidene-1-[(2'-(1H-tetrazole-5-yl)biphenyl-4-yl)methyl]-4,5,6,7-tetrahydro-cycloheptimidazole]",9.86
8,"CCOC(=O)/C=C1\CCCCc2nc(CC)n(Cc3ccc(-c4ccccc4-c4nnn[nH]4)cc3)c21 [Compound 3, 2-Ethyl-8-ethoxycarbonylmethylidene-1-[(2'-(1H-tetrazole-5-yl)biphenyl-4-yl)methyl]-4,5,6,7-tetrahydro-cycloheptimidazole]",9.00
9,"CCc1nc2c(n1Cc1ccc(-n3cccc3-c3nnn[nH]3)cc1)/C(=C/C(=O)OC(C)OC(=O)OC(C)C)CCCC2 (stereo not shown) [Compound 32, 2-Ethyl-8-(1-isopropoxycarbonyloxy)ethoxycarbonylmethylidene-[4-(1H-pyrrole-2-(1H-tetrazole-5-yl)phenyl)methyl]-4,5,6,7-tetrahydro-cycloheptimidazole]",9.38
10,"CCc1nc2c(n1Cc1ccc(-c3ccccc3-c3nnn[nH]3)cc1)/C(=C/C(=O)O)CCCC2 [Compound 16, 2-Ethyl-8-carboxymethylidene-1-[(2'-(1H-tetrazole-5-yl)biphenyl-4-yl)methyl]-4,5,6,7-tetrahydro-cycloheptimidazole]",9.91
11,"CCCCc1nc2c(n1Cc1ccc(-c3ccccc3-c3nnn[nH]3)cc1)/C(=C/C(=O)O)CC(C(C)C)CC2 (stereo not shown) [Compound 25, 2-Butyl-6-isopropyl-8-carboxymethylidene-1-[(2'-(1H-tetrazole-5-yl)biphenyl-4-yl)methyl]-4,5,6,7-tetrahydro-cycloheptimidazole]",8.88
12,"CCCc1nc2c(n1Cc1ccc(-c3ccccc3-c3nnn[nH]3)cc1)/C(=C/C(=O)OCC)CCCC2 [Compound 4, 2-Propyl-8-ethoxycarbonylmethylidene-1-[(2'-(1H-tetrazole-5-yl)biphenyl-4-yl)methyl]-4,5,6,7-tetrahydro-cycloheptimidazole]",8.40
13,"CCCc1nc2c(n1Cc1ccc(-c3ccccc3-c3nnn[nH]3)cc1)/C(=C/C(=O)O)CC(C(C)C)CC2 (stereo not shown) [Compound 21, 2-Propyl-6-isopropyl-8-carboxymethylidene-1-[(2'-(1H-tetrazole-5-yl)biphenyl-4-yl)methyl]-4,5,6,7-tetrahydro-cycloheptimidazole]",9.08
14,CCc1nc2c(n1Cc1ccc(-c3ccccc3-c3nnn[nH]3)cc1)/C(=C/C(=O)OC(C)OC(=O)OC1CCCCC1)CCCC2 (stereo not shown) [Compound 35],8.12
15,"CCc1nc2c(n1Cc1ccc(-c3ccccc3-c3nnn[nH]3)cc1)/C(=C/C(=O)O)CC(C(C)C)CC2 (stereo not shown) [Compound 20, 2-Ethyl-6-isopropyl-8-carboxymethylidene-1-[(2'-(1H-tetrazole-5-yl)biphenyl-4-yl)methyl]-4,5,6,7-tetrahydro-cycloheptimidazole]",9.04

# Same assay, conditions: isolated rabbit thoracic aorta contracted by angiotensin II; from dose-response curve (Schild); read-out: pA2 (converted)
row,SMILES,Kb [nM]
1,"CCCc1nc2c(n1Cc1ccc(-n3cccc3-c3nn[nH]n3)cc1)/C(=C/C(=O)O)CCCC2 [Compound 24, 2-Propyl-8-carboxymethylidene-1-[4-(1H-pyrrole-2-(1H-tetrazole-5-yl)phenyl)methyl]-4,5,6,7-tetrahydro-cycloheptimidazole]",0.158
2,"Cc1nc2c(n1Cc1ccc(-n3cccc3-c3nn[nH]n3)cc1)/C(=C/C(=O)O)CCCC2 [Compound 22, 2-Methyl-8-carboxymethylidene-1-[4-(1H-pyrrole-2-(1H-tetrazole-5-yl)phenyl)methyl]-4,5,6,7-tetrahydro-cycloheptimidazole]",1.26
3,"CCOC(=O)/C=C1\CCCCc2nc(C)n(Cc3ccc(-c4ccccc4-c4nnn[nH]4)cc3)c21 [Compound 2, 2-Methyl-8-ethoxycarbonylmethylidene-1-[(2'-(1H-tetrazole-5-yl)biphenyl-4-yl)methyl]-4,5,6,7-tetrahydro-cycloheptimidazole]",36.3
4,"CCCc1nc2c(n1Cc1ccc(-c3ccccc3-c3nn[nH]n3)cc1)CCCC/C2=C\C(=O)O [Compound 14, 2-Propyl-4-carboxymethylidene-1-[(2'-(1H-tetrazole-5-yl)biphenyl-4-yl)methyl]-5,6,7,8-tetrahydro-cycloheptimidazole]",0.158
5,"CCCCc1nc2c(n1Cc1ccc(-n3cccc3-c3nn[nH]n3)cc1)/C(=C/C(=O)O)CCCC2 [Compound 26, 2-Butyl-8-carboxymethylidene-1-[4-(1H-pyrrole-2-(1H-tetrazole-5-yl)phenyl)methyl]-4,5,6,7-tetrahydro-cycloheptimidazole]",0.501
6,"CCCCCc1nc2c(n1Cc1ccc(-c3ccccc3-c3nn[nH]n3)cc1)/C(=C/C(=O)O)CCCC2 [Compound 19, 2-Pentyl-8-carboxymethylidene-1-[(2'-(1H-tetrazole-5-yl)biphenyl-4-yl)methyl]-4,5,6,7-tetrahydro-cycloheptimidazole]",1.51

# Tested on: pressor responses to AII
# Assay: Inhibition of AII induced blood pressure increase in rats
# Type: in vivo
# Conditions: Rattus norvegicus, po, test compound 0.3 mg/kg orally, AII 30 ng/kg i.v., pressor responses measured at set times
# Protocol: [Inhibition of All induced Blood Pressure Increase]
# Carotid artery and left femoral vein in rats were cannulated. Next day, the carotid catheter was connected to a pressure transducer for monitoring arterial blood pressure. After the measurement of AII (30 ng/kg, i.v.) pressor responses, test compounds (0.3 mg/kg) were administered orally.
# Thereafter, the pressor responses to AII at set times were measured and the inhibition percent was calculated according to the comparison of the pressor responses.
row,SMILES,inhibition in vivo at 0.3 mg/kg [%]
1,CCCc1nc2c(n1Cc1ccc(-c3ccccc3-c3nnn[nH]3)cc1)/C(=C/C(=O)OC(C)OC(=O)OC1CCCCC1)CCCC2 (stereo not shown) [Compound 28],≥ 70
2,"CCc1nc2c(n1Cc1ccc(-c3ccccc3-c3nnn[nH]3)cc1)/C(=C/C(=O)OC(C)OC(=O)OC(C)C)CC(C(C)C)CC2 (stereo not shown) [Compound 31, 2-Ethyl-6-isopropyl-8-(1-isopropoxycarbonyloxy)ethoxycarbonylmethylidene-1-[(2'-(1H-tetrazole-5-yl)biphenyl-4-yl)methyl]-4,5,6,7-tetrahydro cycloheptimidazole]",≥ 70
3,"CCCc1nc2c(n1Cc1ccc(-c3ccccc3-c3nnn[nH]3)cc1)/C(=C/C(=O)O)CCCC2 [Compound 17, 2-Propyl-8-carboxymethylidene-1-[(2'-(1H-tetrazole-5-yl)biphenyl-4-yl)methyl]-4,5,6,7-tetrahydro-cycloheptimidazole]",50 to 70
4,"CCc1nc2c(n1Cc1ccc(-c3ccccc3-c3nnn[nH]3)cc1)/C(=C/C(=O)O)CCCC2 [Compound 16, 2-Ethyl-8-carboxymethylidene-1-[(2'-(1H-tetrazole-5-yl)biphenyl-4-yl)methyl]-4,5,6,7-tetrahydro-cycloheptimidazole]",≥ 70
5,"CCOC(=O)/C=C1\CC(C(C)C)CCc2nc(CC)n(Cc3ccc(-c4ccccc4-c4nnn[nH]4)cc3)c21 (stereo not shown) [Compound 7, 2-Ethyl-6-isopropyl-8-ethoxycarbonylmethylidene-1-[(2'-(1H-tetrazole-5yl)biphenyl-4-yl)methyl]-4,5,6,7-tetrahydro-cycloheptimidazole]",≥ 70
6,"CCCc1nc2c(n1Cc1ccc(-c3ccccc3-c3nnn[nH]3)cc1)/C(=C/C(=O)OC(C)OC(=O)OC(C)C)CC(C(C)C)CC2 (stereo not shown) [Compound 33, 2-Propyl-6-isopropyl-8-(1-isopropoxycarbonyloxy)ethoxycarbonylmethylidene-1-[(2'-(1H-tetrazole-5-yl)biphenyl-4-yl)methyl]-4,5,6,7-tetrahydro-cycloheptimidazole]",≥ 70
7,"CCCc1nc2c(n1Cc1ccc(-c3ccccc3-c3nnn[nH]3)cc1)/C(=C/C(=O)OCC)CCCC2 [Compound 4, 2-Propyl-8-ethoxycarbonylmethylidene-1-[(2'-(1H-tetrazole-5-yl)biphenyl-4-yl)methyl]-4,5,6,7-tetrahydro-cycloheptimidazole]",50 to 70
